# Target: Growth hormone secretagogue receptor type 1 (Rattus norvegicus, UniProt O08725)
# Experiment: In vitro growth hormone release was determined in rat pituitary cell assay
# Assay type: functional, cell-based, Pituitary gland cell
# Conditions: not given; call rule not given here
# Growth hormone secretagogue receptor type 1, sequence (O08725 whole entry): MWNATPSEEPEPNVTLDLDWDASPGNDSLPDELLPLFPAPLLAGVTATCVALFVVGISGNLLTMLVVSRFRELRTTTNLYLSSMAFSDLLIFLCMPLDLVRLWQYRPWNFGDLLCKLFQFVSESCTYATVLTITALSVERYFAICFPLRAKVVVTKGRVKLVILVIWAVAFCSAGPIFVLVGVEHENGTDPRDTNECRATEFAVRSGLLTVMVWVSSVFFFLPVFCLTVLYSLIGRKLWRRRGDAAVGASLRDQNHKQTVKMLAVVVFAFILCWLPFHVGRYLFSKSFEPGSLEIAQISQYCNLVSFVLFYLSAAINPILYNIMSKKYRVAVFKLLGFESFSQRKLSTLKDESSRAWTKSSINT
row,SMILES,EC50 [µM]
1,CC(C)(N)C(=O)N[C@H](Cc1c[nH]c2ccccc12)C(=O)N1CCC2(CC1)Cc1ccccc1C2=O,0.042
2,CC(C)(N)C(=O)N[C@H](Cc1c[nH]c2ccccc12)C(=O)N1CCC2(CCCc3ccccc32)CC1,0.066
3,CC(C)(N)C(=O)N[C@H](Cc1c[nH]c2ccccc12)C(=O)N1CCC[C@]2(CC(=O)c3ccccc3O2)C1,0.057
4,CC(C)(N)C(=O)N[C@H](Cc1c[nH]c2ccccc12)C(=O)N1CCC2(CC1)CC(=O)c1ccccc1O2,0.037
5,CC(C)(N)C(=O)N[C@H](Cc1c[nH]c2ccccc12)C(=O)N1CCC2(CC1)Cc1ccccc1C2,0.037
6,CC(C)(N)C(=O)N[C@H](Cc1c[nH]c2ccccc12)C(=O)N1CCCC2(CCc3ccccc32)C1 (stereo partly drawn),0.63
7,CC(C)(N)CC(=O)N[C@@H]1CCc2ccccc2N(Cc2ccc(-c3ccccc3-c3nnn[nH]3)cc2)C1=O,0.06
8,CC(C)(N)C(=O)N[C@H](Cc1c[nH]c2ccccc12)C(=O)N1CCCC2(Cc3ccccc3C2)C1,0.06

# The next lines start with the values.
row,EC50 [µM],SMILES
1,0.02,CC(C)(N)C(=O)N[C@H](Cc1c[nH]c2ccccc12)C(=O)N1CCCC2(Cc3ccccc3C2=O)C1 (stereo partly drawn)
2,0.0012,CC(C)(N)C(=O)N[C@H](Cc1c[nH]c2ccccc12)C(=O)N1CCCC2(CC(O)c3ccccc3O2)C1 (stereo partly drawn)
3,0.0018,CC(C)(N)C(=O)N[C@H](Cc1c[nH]c2ccccc12)C(=O)N1CCCC2(CC(=O)c3ccccc3O2)C1 (stereo partly drawn)
4,0.019,CC(C)(N)C(=O)N[C@H](Cc1c[nH]c2ccccc12)C(=O)N1CCC2(CC1)Cc1ccccc1C2O (stereo partly drawn)
5,0.025,CC(C)(N)C(=O)N[C@H](Cc1c[nH]c2ccccc12)C(=O)N1CCC2(CCc3ccccc3O2)CC1
6,0.0029,CC(C)(N)C(=O)N[C@H](Cc1c[nH]c2ccccc12)C(=O)N1CCCC2(CCc3ccccc3O2)C1 (stereo partly drawn)
7,0.0012,CC(C)(N)C(=O)N[C@H](Cc1c[nH]c2ccccc12)C(=O)N1CCC[C@@]2(CC(=O)c3ccccc3O2)C1
8,0.016,CC(C)(N)C(=O)N[C@H](Cc1c[nH]c2ccccc12)C(=O)N1CCC2(CC1)CC(O)c1ccccc1O2 (stereo partly drawn)
9,0.014,CC(C)(N)C(=O)N[C@H](Cc1c[nH]c2ccccc12)C(=O)N1CCC2(CCc3ccccc32)CC1 [L-162752]

# Organism: Rattus norvegicus
# Experiment: In vitro growth hormone release was determined in rat pituitary cell assay; NA means not active
# Assay type: functional
# Conditions: pituitary gland cell
row,SMILES,EC50
1,CC(C)(N)C(=O)N[C@H](Cc1c[nH]c2ccccc12)C(=O)N1CCCC2(Cc3ccccc3C2O)C1 (stereo partly drawn),Not Active
